Source: ChEMBL document CHEMBL1152072, “Synthesis and structure-activity relationships of novel antiseptics” (1997)

Columns and labels:
Format in all cases: functional
Escherichia coli [1] = assay: Antibacterial activity against Escherichia coli after 3 mins.
Staphylococcus aureus [2] = assay: Antibacterial activity against Staphylococcus aureus after 3 mins.
Pseudomonas aeruginosa [3] = assay: Antibacterial activity against Pseudomonas aeruginosa ATCC 10145 after 3 mins.
Burkholderia cepacia = assay: Antibacterial activity against Burkholderia cepacia 10 after 3 mins.
Staphylococcus aureus [4] = assay: Antibacterial activity against methicillin-resistant Staphylococcus aureus 57 after 3 mins.
[5] = tested on: Staphylococcus epidermidis; assay: Antibacterial activity against Staphylococcus epidermidis ATCC 12228 after 30 seconds
Enterococcus faecalis [6] = assay: Antibacterial activity against Enterococcus faecalis IFO 12580 after 30 seconds
Pseudomonas aeruginosa [7] = assay: Antibacterial activity against Pseudomonas aeruginosa ATCC 10145 after 30 seconds
Escherichia coli [8] = assay: Antibacterial activity against Escherichia coil NIHJ JC-2 after 30 seconds
Staphylococcus aureus [9] = assay: Antibacterial activity against Staphylococcus aureus FDA 209P after 30 seconds
Serratia marcescens [10] = assay: Antibacterial activity against Serratia marcescens IFO 12648 after 30 seconds
Enterococcus faecalis [11] = assay: Antibacterial activity against Enterococcus faecalis IFO 12580
Staphylococcus aureus [12] = assay: Antibacterial activity against Staphylococcus aureus after 30 seconds
Serratia marcescens [13] = assay: Antibacterial activity against Serratia marcescens IFO 12648,after 30 seconds
Escherichia coli [14] = assay: Antibacterial activity against Escherichia coli NIHJ JC-2,after 30 seconds

In the case of `CCCCCC/N=C(N)/N=C(\N)NCc1ccc(Cl)cc1.Cl`, the Activity (Escherichia coli [1]) is reported as 100 µg/mL, the Activity (Staphylococcus aureus [2]) is reported as >100 µg/mL and the Activity (Pseudomonas aeruginosa [3]) is reported as 50 µg/mL. For the same compound, the Activity (Burkholderia cepacia) was 100 µg/mL.

Work on `Cl.N=C(NCc1ccc(Cl)c(Cl)c1)NC(=N)Nc1ccc(Cl)c(Cl)c1` yielded an Activity (Escherichia coli [1]) of 10 µg/mL, an Activity (Staphylococcus aureus [2]) of 50 µg/mL and an Activity (Pseudomonas aeruginosa [3]) of 10 µg/mL.

In the case of `CCCCCC/N=C(N)/N=C(\N)Nc1ccc(Cl)c(Cl)c1.Cl`, the Activity (Escherichia coli [1]) is reported as 20 µg/mL, the Activity (Staphylococcus aureus [2]) is reported as 100 µg/mL and the Activity (Pseudomonas aeruginosa [3]) is reported as 20 µg/mL. The Activity (Burkholderia cepacia) was 20 µg/mL.

`Cl.N=C(NCc1ccc(Cl)c(Cl)c1)NC(=N)Nc1ccc(Cl)cc1Cl` was tested, and the Activity (Escherichia coli [1]) was “<=10 ug ml-1”, the Activity (Staphylococcus aureus [2]) was 20 µg/mL and the Activity (Pseudomonas aeruginosa [3]) was “<=10 ug ml-1”. The Activity (Burkholderia cepacia) was “<=10 ug ml-1”.

`Cl.N=C(NCc1ccc(Cl)c(Cl)c1)NC(=N)Nc1ccc(Cl)c(Cl)c1Cl` was tested, and the Activity (Escherichia coli [1]) was “<=10 ug ml-1”, the Activity (Staphylococcus aureus [2]) was “<=10 ug ml-1” and the Activity (Pseudomonas aeruginosa [3]) was “<=10 ug ml-1”. For the same compound, the Activity (Burkholderia cepacia) was “<=10 ug ml-1”.

`Cc1ccc(NC(=N)/N=C(\N)NCc2ccc(Cl)c(Cl)c2)cc1C.Cl` was tested, and the Activity (Escherichia coli [1]) was “<=10 ug ml-1”, the Activity (Staphylococcus aureus [2]) was 20 µg/mL and the Activity (Pseudomonas aeruginosa [3]) was “<=10 ug ml-1”. For the same compound, the Activity (Burkholderia cepacia) was 20 µg/mL.

For `Cl.N=C(NCc1ccc(Cl)c(Cl)c1)NC(=N)Nc1ccc(Cl)cc1`, the Activity (Escherichia coli [1]) was 50 µg/mL, the Activity (Staphylococcus aureus [2]) was 50 µg/mL and the Activity (Staphylococcus aureus [4]) was 100 µg/mL. It also gave an Activity (Pseudomonas aeruginosa [3]) of 50 µg/mL.

Compound `CCCCCC/N=C(N)/N=C(\N)Nc1ccc(Cl)cc1.Cl` has an Activity (Escherichia coli [1]) of 100 µg/mL, an Activity (Staphylococcus aureus [2]) of 500 µg/mL and an Activity (Pseudomonas aeruginosa [3]) of 20 µg/mL. It also gave an Activity (Burkholderia cepacia) of 100 µg/mL.

With `CCCCCCCCCC/N=C(N)/N=C(\N)NCc1ccc(Cl)c(Cl)c1.Cl` the Activity (Escherichia coli [1]) was “<=10 ug ml-1”, the Activity (Staphylococcus aureus [2]) was 50 µg/mL and the Activity (Pseudomonas aeruginosa [3]) was 100 µg/mL. The Activity (Burkholderia cepacia) was 100 µg/mL.

Compound `CCCCCC/N=C(N)/N=C(\N)NCc1ccc(Cl)c(Cl)c1.Cl` has an Activity (Escherichia coli [1]) of 50 µg/mL, an Activity (Staphylococcus aureus [2]) of 50 µg/mL and an Activity (Pseudomonas aeruginosa [3]) of 50 µg/mL. It also gave an Activity (Burkholderia cepacia) of 100 µg/mL.

For `CCCCCCCCCCCC/N=C(N)/N=C(\N)Nc1ccc(Cl)c(Cl)c1.Cl`, the Activity (Escherichia coli [1]) was 20 µg/mL, the Activity (Staphylococcus aureus [2]) was 100 µg/mL and the Activity (Pseudomonas aeruginosa [3]) was 20 µg/mL. For the same compound, the Activity (Burkholderia cepacia) was >500 µg/mL.

`CCCCCCCCCCCC/N=C(N)/N=C(\N)NCc1ccc(Cl)c(Cl)c1.Cl` gave an Activity (Escherichia coli [1]) of 20 µg/mL, an Activity (Staphylococcus aureus [2]) of 100 µg/mL and an Activity (Pseudomonas aeruginosa [3]) of 100 µg/mL. For the same compound, the Activity (Burkholderia cepacia) was >500 µg/mL.

`CCCCCCCC/N=C(N)/N=C(\N)NCc1ccc(Cl)c(Cl)c1.Cl` was tested, and the Activity [5] was 5 µg/mL, the Activity (Escherichia coli [1]) was “<=10 ug ml-1” and the Activity (Enterococcus faecalis [6]) was 10 µg/mL. For the same compound, the Activity (Staphylococcus aureus [2]) was “<=10 ug ml-1”, the Activity (Pseudomonas aeruginosa [7]) was 10 µg/mL and the Activity (Pseudomonas aeruginosa [3]) was “<=10 ug ml-1”. For the same compound, the Activity (Escherichia coli [8]) was 20 µg/mL, the Activity (Staphylococcus aureus [9]) was 20 µg/mL and the Activity (Serratia marcescens [10]) was 20 µg/mL. For the same compound, the Activity (Burkholderia cepacia) was “<=10 ug ml-1”.

In the case of `N=C(NCCCCCCNC(=N)NC(=N)Nc1ccc(Cl)cc1)NC(=N)Nc1ccc(Cl)cc1` [CHLORHEXIDINE], the Activity [5] is reported as 40 µg/mL, the Activity (Enterococcus faecalis [11]) is reported as >160 µg/mL and the Activity (Escherichia coli [1]) is reported as 20 µg/mL. The Activity (Staphylococcus aureus [12]) was >160 µg/mL, the Activity (Serratia marcescens [13]) was 40 µg/mL and the Activity (Escherichia coli [14]) was 80 µg/mL. The Activity (Staphylococcus aureus [2]) was 100 µg/mL, the Activity (Pseudomonas aeruginosa [7]) was 160 µg/mL and the Activity (Pseudomonas aeruginosa [3]) was 100 µg/mL. The Activity (Burkholderia cepacia) was >500 µg/mL.

For `CCCCCCCC/N=C(N)/N=C(\N)Nc1ccc(Cl)c(Cl)c1.Cl`, the Activity (Escherichia coli [1]) was 50 µg/mL, the Activity (Staphylococcus aureus [2]) was 50 µg/mL and the Activity (Pseudomonas aeruginosa [3]) was 50 µg/mL.

`CCCCCCCCCC/N=C(N)/N=C(\N)Nc1ccc(Cl)c(Cl)c1.Cl` gave an Activity (Escherichia coli [1]) of 20 µg/mL, an Activity (Staphylococcus aureus [2]) of 100 µg/mL and an Activity (Pseudomonas aeruginosa [3]) of 100 µg/mL. For the same compound, the Activity (Burkholderia cepacia) was 100 µg/mL.

With `Cl.N=C(NCc1ccc(Cl)c(Cl)c1)NC(=N)Nc1ccc(I)cc1` the Activity (Escherichia coli [1]) was “<=10 ug ml-1”, the Activity (Staphylococcus aureus [2]) was 20 µg/mL and the Activity (Pseudomonas aeruginosa [3]) was “<=10 ug ml-1”. For the same compound, the Activity (Burkholderia cepacia) was “<=10 ug ml-1”.

For `Cl.N=C(NCc1ccc(Cl)c(Cl)c1)NC(=N)Nc1ccc(Br)cc1`, the Activity (Escherichia coli [1]) was “<=10 ug ml-1”, the Activity (Staphylococcus aureus [2]) was 20 µg/mL and the Activity (Pseudomonas aeruginosa [3]) was 20 µg/mL. For the same compound, the Activity (Burkholderia cepacia) was 20 µg/mL.
